{"source": "ChEMBL document CHEMBL3856281", "about": "“Novel approach of fragment-based lead discovery applied to renin inhibitors” (Bioorg Med Chem, 2016)", "key": {"[1]": {"target": "T1, Renin (Homo sapiens, UniProt P00797)", "T1 sequence (P00797 whole entry)": "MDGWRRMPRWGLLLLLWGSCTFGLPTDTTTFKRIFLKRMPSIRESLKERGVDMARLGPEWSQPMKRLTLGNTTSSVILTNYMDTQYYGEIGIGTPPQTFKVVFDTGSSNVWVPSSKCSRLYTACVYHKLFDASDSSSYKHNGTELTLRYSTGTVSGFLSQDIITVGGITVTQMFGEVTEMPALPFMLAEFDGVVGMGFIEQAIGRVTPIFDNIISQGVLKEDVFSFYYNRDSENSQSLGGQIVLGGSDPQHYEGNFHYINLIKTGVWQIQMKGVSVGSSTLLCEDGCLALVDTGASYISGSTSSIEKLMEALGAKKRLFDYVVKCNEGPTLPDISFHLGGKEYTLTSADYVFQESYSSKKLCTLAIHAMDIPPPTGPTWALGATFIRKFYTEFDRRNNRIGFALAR", "assay": "(§1) Inhibition of human recombinant renin expressed in FreeStyle 293 expression system using FITC-epsilonAcp-Asp-Arg-Val-Tyr-Ile-His-Pro-Phe-His-Leu-Val-Ile-His-Asn-Arg-NH2 as substrate preincubated for 15 mins followed by substrate addition measured after 30 mins by microchip type capillary electrophoresis method"}, "[2]": {"target": "T2, Renin (Homo sapiens) (UniProt P00797)", "T2 sequence (whole entry)": "T1 sequence (P00797 whole entry)", "assay": "as §1, with “system at 100 uM” for “system”, “method relative to control” for “method”"}, "[3]": {"assay": "Aqueous solubility of the compound in pH 6.8 Japanese pharmacopoeia second fluid by HPLC analysis", "assay_type": "ADME"}, "[4]": {"target": "hERG (KCNH2) (Homo sapiens, UniProt Q12809)", "sequence (Q12809 whole entry)": "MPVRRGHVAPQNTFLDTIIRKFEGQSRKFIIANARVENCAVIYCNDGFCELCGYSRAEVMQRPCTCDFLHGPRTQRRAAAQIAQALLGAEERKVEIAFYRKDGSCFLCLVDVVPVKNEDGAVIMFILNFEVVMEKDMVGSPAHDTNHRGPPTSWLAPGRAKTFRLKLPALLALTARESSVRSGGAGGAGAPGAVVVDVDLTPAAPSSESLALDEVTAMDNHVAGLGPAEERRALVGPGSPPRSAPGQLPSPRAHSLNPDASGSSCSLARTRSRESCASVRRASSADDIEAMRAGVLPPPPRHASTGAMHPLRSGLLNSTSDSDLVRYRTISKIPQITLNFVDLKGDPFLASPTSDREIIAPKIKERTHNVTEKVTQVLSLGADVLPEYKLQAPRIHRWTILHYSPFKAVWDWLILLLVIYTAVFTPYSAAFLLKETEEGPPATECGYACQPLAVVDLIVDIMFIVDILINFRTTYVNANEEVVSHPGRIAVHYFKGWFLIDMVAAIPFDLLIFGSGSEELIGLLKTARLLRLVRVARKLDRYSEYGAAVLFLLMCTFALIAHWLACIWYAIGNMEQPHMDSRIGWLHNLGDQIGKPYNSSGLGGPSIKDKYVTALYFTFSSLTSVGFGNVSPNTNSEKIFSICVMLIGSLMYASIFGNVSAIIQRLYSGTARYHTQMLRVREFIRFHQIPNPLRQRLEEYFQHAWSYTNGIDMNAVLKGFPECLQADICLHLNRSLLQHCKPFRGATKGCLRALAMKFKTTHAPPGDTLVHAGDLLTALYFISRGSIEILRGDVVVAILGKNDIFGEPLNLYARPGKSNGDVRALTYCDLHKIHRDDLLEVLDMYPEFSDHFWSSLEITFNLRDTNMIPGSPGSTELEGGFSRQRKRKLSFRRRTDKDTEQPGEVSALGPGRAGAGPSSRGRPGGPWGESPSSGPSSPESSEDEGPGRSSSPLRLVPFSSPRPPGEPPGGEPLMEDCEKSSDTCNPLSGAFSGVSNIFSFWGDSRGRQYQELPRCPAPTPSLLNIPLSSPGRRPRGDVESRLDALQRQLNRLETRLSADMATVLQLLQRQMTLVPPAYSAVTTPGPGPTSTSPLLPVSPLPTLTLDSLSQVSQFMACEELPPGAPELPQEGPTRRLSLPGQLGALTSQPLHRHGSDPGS", "assay": "Inhibition of human ERG expressed in CHO cells assessed as suppression of peak tail currents incubated for 5 mins by patch clamp method", "assay_type": "cell-based", "settings": "CHO cells that express human ERG"}, "[5]": {"assay": "Intrinsic clearance in human liver microsomes assessed per mg of protein at 1 umol/l after 15 to 30 mins in presence of NADPH-generating system by LC/MS/MS analysis", "assay_type": "ADME", "settings": "read-out: CLH"}, "[6]": {"assay": "Cytotoxicity against human HepG2 cells assessed as ATP contents at 30 uM after 1 day by ATPLiteTM-M assay relative to control", "assay_type": "toxicity, cell-based", "settings": "read-out: Activity"}, "[7]": {"target": "CYP3A4 (Homo sapiens, UniProt P08684)", "sequence (P08684 whole entry)": "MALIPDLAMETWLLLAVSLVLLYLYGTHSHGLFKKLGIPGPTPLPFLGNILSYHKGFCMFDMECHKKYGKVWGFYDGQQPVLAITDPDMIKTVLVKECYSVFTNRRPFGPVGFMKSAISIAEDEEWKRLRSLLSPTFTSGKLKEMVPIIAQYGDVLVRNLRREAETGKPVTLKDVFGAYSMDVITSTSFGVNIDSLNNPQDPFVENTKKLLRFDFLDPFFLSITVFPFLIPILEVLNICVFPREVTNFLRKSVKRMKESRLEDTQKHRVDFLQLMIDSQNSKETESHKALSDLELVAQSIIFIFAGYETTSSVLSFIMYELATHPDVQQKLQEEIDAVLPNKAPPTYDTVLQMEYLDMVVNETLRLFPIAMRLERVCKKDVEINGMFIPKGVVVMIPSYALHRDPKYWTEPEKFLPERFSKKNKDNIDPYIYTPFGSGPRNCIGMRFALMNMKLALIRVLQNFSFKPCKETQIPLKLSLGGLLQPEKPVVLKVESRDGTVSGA", "assay": "Inhibition of CYP3A4 in human liver microsomes using testosterone as substrate assessed as 6beta-hydroxytestosterone formation at 10 uM after 60 mins by LC/MS/MS analysis relative to control", "assay_type": "ADME", "settings": "probe testosterone"}}, "data": [{"smiles": "CCC1CCCCN1C(=O)c1ccc(C)nc1NCc1ccco1", "note": "(stereo not drawn)", "values": [{"measurement": "IC50", "setting": "[1]", "value": 11, "unit": "µM"}, {"measurement": "inhibition", "setting": "[2]", "value": 86, "unit": "%"}]}, {"smiles": "Cc1ccc(C(=O)NC(C)(C)c2ccccc2)c(NCc2ccco2)n1", "values": [{"measurement": "inhibition", "setting": "[2]", "value": "< 30", "unit": "%"}]}, {"smiles": "CCN(CC)C(=O)c1ccc(C)nc1NCc1ccco1", "values": [{"measurement": "inhibition", "setting": "[2]", "value": 31, "unit": "%"}]}, {"smiles": "c1coc(CNc2ncnc3sc4c(c23)CCCC4)c1", "values": [{"measurement": "solubility", "setting": "[3]", "value": 5.2, "unit": "µg/mL"}, {"measurement": "inhibition at 5 min", "setting": "[4]", "value": 62.8, "unit": "%"}, {"measurement": "microsomal CLint at 1 µM", "setting": "[5]", "value": 187, "unit": "µL/min/mg"}, {"measurement": "viability at 24 h, 30 µM", "setting": "[6]", "value": 31.4, "unit": "%"}, {"measurement": "inhibition at 1 h, 10 µM", "setting": "[7]", "value": 70.2, "unit": "%"}]}, {"smiles": "Cc1ccc(C(=O)N2CCCCCC2)c(NCc2ccco2)n1", "values": [{"measurement": "solubility", "setting": "[3]", "value": 50, "unit": "µg/mL"}, {"measurement": "inhibition at 5 min", "setting": "[4]", "value": 7.5, "unit": "%"}, {"measurement": "microsomal CLint at 1 µM", "setting": "[5]", "value": 85, "unit": "µL/min/mg"}, {"measurement": "viability at 24 h, 30 µM", "setting": "[6]", "value": 91.6, "unit": "%"}, {"measurement": "inhibition at 1 h, 10 µM", "setting": "[7]", "value": 35.6, "unit": "%"}, {"measurement": "inhibition", "setting": "[2]", "value": 70, "unit": "%"}]}, {"smiles": "NCc1ccco1", "values": [{"measurement": "IC50", "setting": "[1]", "value": "> 300", "unit": "µM"}]}, {"smiles": "Nc1ncnc2sc3c(c12)CCCC3", "values": [{"measurement": "IC50", "setting": "[1]", "value": "> 300", "unit": "µM"}]}, {"smiles": "Clc1cncc(NCc2ccco2)n1", "values": [{"measurement": "inhibition", "setting": "[2]", "value": 65, "unit": "%"}]}]}
